Data on 24 compounds can be found in patent US20240425475A1, “COMPOUND BASED ON QUINAZOLINE-SUBSTITUTED GLUTARIMIDE SKELETON AND USE THEREOF” (GLUETACS THERAPEUTICS (SHANGHAI) CO., LTD., priority 2022, published 2024).

Each structure is given as a SMILES string.

The experiment deals with human Cereblon WT GST-tagged protein (Homo sapiens (Human), UniProt Q96SW2). The experiment in a line: CRBN-binding affinity, CEREBLON BINDING kit (HTRF). Conditions: HTRF inhibitory activity, binding to CRBN. An excerpt: Determination of CRBN-Binding Affinity of Compounds
Sequence of human Cereblon WT GST-tagged protein (Q96SW2 whole entry): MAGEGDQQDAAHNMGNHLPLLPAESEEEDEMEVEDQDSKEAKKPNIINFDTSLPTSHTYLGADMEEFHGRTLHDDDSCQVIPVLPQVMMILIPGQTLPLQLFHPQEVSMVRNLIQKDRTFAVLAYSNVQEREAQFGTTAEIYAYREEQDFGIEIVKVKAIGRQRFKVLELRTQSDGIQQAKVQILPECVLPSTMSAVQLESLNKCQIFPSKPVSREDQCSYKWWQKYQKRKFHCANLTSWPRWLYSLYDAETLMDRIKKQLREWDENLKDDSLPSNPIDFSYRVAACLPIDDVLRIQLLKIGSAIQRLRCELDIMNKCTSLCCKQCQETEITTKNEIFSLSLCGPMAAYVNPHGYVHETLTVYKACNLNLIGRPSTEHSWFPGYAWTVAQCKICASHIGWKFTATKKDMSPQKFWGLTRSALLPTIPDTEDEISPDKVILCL
The CEREBLON BINDING kits (specification: 10,000 tests; product number: Catalog #64BDCRBNPEH; CISBIO company) was used to determine the CRBN binding ability of the compounds to be tested through a HTRF method (homogeneous time-resolved fluorescence). The specific methods are as follows: • 1. According to the instructions of the CEREBLON BINDING kits, the compounds to be tested of the present invention and lenalidomide were serially diluted using diluent #9 (1×) solution to obtain a final concentration of 2 μM for both the tested compounds and lenalidomide solution. • 2.2.5 μL of the above 2 μM of the tested compounds and lenalidomide solution, as well as the same volume of diluent #9 (1×) solution (solvent control group, Std0) were taken and added to each well of a 96-well plate, respectively. Then, 2.5 μL of (human Cereblon WT GST-tagged protein) solution was added to each well. Finally, 5 μL of the uniformly mixed thalidomide-Red reagent and GST Eu antibody working solution were added to each of the above wells. The final concentration of the tested compounds and lenalidomide in each well is 0.5 μM. • 3. The blank control wells were sequentially added with 2.5 μL of diluent #9 (1×) solution, 2.5 μL of PROTAC binding buffer, and 5 μL of uniformly mixed thalidomide-Red reagent and GST Eu antibody working solution. • 4. After sealing and incubating the solutions in the above wells at room temperature for 3 hours, the absorbance values at emission wavelengths of 620 nm and 665 nm were detected by the HTRF method using a Spark microplate reader (V3.1 SP1).
The corresponding CRBN binding inhibition rate was calculated using the following method: […]
Note: OD 665 nmcompound is the absorbance value of each well of the compounds to be tested of the present disclosure at an emission wavelength of 665 nm.
OD 620 nmcompound is the absorbance value of each well of the compounds to be tested of the present disclosure at an emission wavelength of 620 nm.
OD 665 nmcontrol is the absorbance value of the blank control well at an emission wavelength of 665 nm.
OD 620 nmcontrol is the absorbance value of the blank control well at an emission wavelength of 620 nm.
OD 665 nmstd0 is the absorbance value of the solvent control well at an emission wavelength of 665 nm.
OD 620 nmstd0 is the absorbance value of the solvent control well at an emission wavelength of 620 nm.
Background: In TR-FRET formats the signal depends on donor and acceptor labels being close together.
By IC50 is commonly meant the concentration at which inhibition is half-maximal. As to `Cc1nc2cccc(CCCCCCCCN3CCC(N4CCN(C)CC4)CC3)c2c(=O)n1C1CCC(=O)NC1=O` (stereo not drawn) [GT-02799, 3-(2-methyl-5-(8-(4-(4-methylpiperazin-1-yl)piperidin-1-yl)octyl)-4-oxoquinazolin-3(4H)-yl)piperidine-2,6-dione], the IC50 was 2470 nM.
Next, `Cc1nc2cccc(NC34CC5CC(CC(C5)C3)C4)c2c(=O)n1C1CCC(=O)NC1=O` (stereo not drawn) [GT-02601, 3-(5-(((1s,3s)-adamantan-1-yl)amino)-2-methyl-4-oxoquinazolin-3(4H)-yl)piperidine-2,6-dione]: 2820 nM; `Cc1nc2cccc(N3C4CC3CN(CCC35CC6CC(CC(C6)C3)C5)C4)c2c(=O)n1C1CCC(=O)NC1=O` (stereo not drawn) [GT-04231, 3-(5-(3-(2-((3r,5r,7r)-adamantan-1-yl)ethyl)-3,6-diazabicyclo[3.1.1]heptan-6-yl)-2-methyl-4-oxoquinazolin-3(4H)-yl)piperidine-2,6-dione]: 3240 nM; `Cc1nc2cccc(NCCOCCNC34CC5CC(CC3C5)C4)c2c(=O)n1C1CCC(=O)NC1=O` (stereo not drawn) [GT-02389, 3-(5-((2-(2-(((3as,6as)-hexahydro-2,5-methanopentalen-3a(1H)-yl)amino)ethoxy)ethyl)amino)-2-methyl-4-oxoquinazolin-3(4H)-yl)piperidine-2,6-dione]: 780 nM.
Next, `Cc1nc2cccc(NCCCCNC3C4CC5CC(C4)CC3C5)c2c(=O)n1C1CCC(=O)NC1=O` (stereo not drawn) [GT-02392, 3-(5-((4-(((1r,3r,5r,7r)-adamantan-2-yl)amino)butyl)amino)-2-methyl-4-oxoquinazolin-3(4H)-yl)piperidine-2,6-dione]: 990 nM; `Cc1nc2cccc(NCCCCCCCN3CC4CC(C3)O4)c2c(=O)n1C1CCC(=O)NC1=O` (stereo not drawn) [GT-02621, 3-(5-((7-(6-oxa-3-azabicyclo[3.1.1]heptan-3-yl)heptyl)amino)-2-methyl-4-oxoquinazolin-3(4H)-yl)piperidine-2,6-dione]: 1040 nM.
Next, `Cc1nc2cccc(CN3CCN(Cc4ccc(C56CC7CC(CC(C7)C5)C6)cc4)CC3)c2c(=O)n1C1CCC(=O)NC1=O` (stereo not drawn) [GT-03230, 3-(5-((4-(4-((3r,5r,7r)-adamantan-1-yl)benzyl)piperazin-1-yl)methyl)-2-methyl-4-oxoquinazolin-3(4H)-yl)piperidine-2,6-dione]: 2750 nM.
`Cc1nc2cccc(NCCOCCNC34CC5CC(CC(C5)C3)C4)c2c(=O)n1C1CCC(=O)NC1=O` (stereo not drawn) [GT-02234, 3-(5-((2-(2-(((1s,3s)-adamantan-1-yl)amino)ethoxy)ethyl)amino)-2-methyl-4-oxoquinazolin-3(4H)-yl)piperidine-2,6-dione]: the IC50 was found to be 3340 nM.
Regarding `Cc1nc2cccc(CCCCCNC34CC5CC(CC(C5)C3)C4)c2c(=O)n1C1CCC(=O)NC1=O` (stereo not drawn) [GT-02759, 3-(5-(5-(((3s,5s,7s)-adamantan-1-yl)amino)pentyl)-2-methyl-4-oxoquinazolin-3(4H)-yl)piperidine-2,6-dione], the IC50 was determined as 50 nM.
In the case of `Cc1nc2cccc(NCCOCCOCCNC34CC5CC(CC3C5)C4)c2c(=O)n1C1CCC(=O)NC1=O` (stereo not drawn) [GT-02497, 3-(5-((2-(2-(2-(((3as,6as)-hexahydro-2,5-methanopentalen-3a(1H)-yl)amino)ethoxy)ethoxy)ethyl)amino)-2-methyl-4-oxoquinazolin-3(4H)-yl)piperidine-2,6-dione] it was 660 nM; in that of `Cc1nc2cccc(NCCCCCCCN3CCN(C4COC4)CC3)c2c(=O)n1C1CCC(=O)NC1=O` (stereo not drawn) [GT-02623, 3-(2-methyl-5-((7-(4-(oxetan-3-yl)piperazin-1-yl)heptyl)amino)-4-oxoquinazolin-3(4H)-yl)piperidine-2,6-dione], 2520 nM.
In the case of `Cc1nc2cccc(CN3CCNCC3)c2c(=O)n1C1CCC(=O)NC1=O` (stereo not drawn) [GT-03228, 3-(2-methyl-4-oxo-5-(piperazin-1-ylmethyl)quinazolin-3(4H)-yl)piperidine-2,6-dione] it was 1840 nM.
In the case of `Cc1nc2cccc(SCCN3CCN(Cc4ccc(C56CC7CC(CC(C7)C5)C6)cc4)CC3)c2c(=O)n1C1CCC(=O)NC1=O` (stereo not drawn) [GT-03315, 3-(5-((2-(4-(4-((1s,3s)-adamantan-1-yl)benzyl)piperazin-1-yl)ethyl)thio)-2-methyl-4-oxoquinazolin-3(4H)-yl)piperidine-2,6-dione] it was 1980 nM.
`Cc1nc2cccc(CN3CCN(CC45CC6CC(CC(C6)C4)C5)CC3)c2c(=O)n1C1CCC(=O)NC1=O` (stereo not drawn) [GT-03227, 3-(5-((4-(((3r,5r,7r)-adamantan-1-yl)methyl)piperazin-1-yl)methyl)-2-methyl-4-oxoquinazolin-3(4H)-yl)piperidine-2,6-dione] returned an IC50 of 2240 nM.
Next, `Cc1nc2cccc(C#CCN3CCN(Cc4ccc(C56CC7CC(CC(C7)C5)C6)cc4)CC3)c2c(=O)n1C1CCC(=O)NC1=O` (stereo not drawn) [GT-03233, 3-(5-(3-(4-(4-((3r,5r,7r)-adamantan-1-yl)benzyl)piperazin-1-yl)prop-1-yn-1-yl)-2-methyl-4-oxoquinazolin-3(4H)-yl)piperidine-2,6-dione]: 2240 nM.
Next, `Cc1nc2cccc(SCCN3CCN(CC45CC6CC(CC(C6)C4)C5)CC3)c2c(=O)n1C1CCC(=O)NC1=O` (stereo not drawn) [GT-03259, 3-(5-((2-(4-(((3r,5r,7r)-adamantan-1-yl)methyl)piperazin-1-yl)ethyl)thio)-2-methyl-4-oxoquinazolin-3(4H)-yl)piperidine-2,6-dione]: 2150 nM; `Cc1nc2cccc(C#CCCCCCCN3CCN(C)CC3)c2c(=O)n1C1CCC(=O)NC1=O` (stereo not drawn) [GT-02645, 3-(2-methyl-5-(8-(4-methylpiperazin-1-yl)oct-1-yn-1-yl)-4-oxoquinazolin-3(4H)-yl)piperidine-2,6-dione]: 2800 nM; `Cc1nc2cccc(C#CCN3CCN(CCC45CC6CC(CC(C6)C4)C5)CC3)c2c(=O)n1C1CCC(=O)NC1=O` (stereo not drawn) [GT-03262, 3-(5-(3-(4-(2-((1s,3s)-adamantan-1-yl)ethyl)piperazin-1-yl)prop-1-yn-1-yl)-2-methyl-4-oxoquinazolin-3(4H)-yl)piperidine-2,6-dione]: 1000 nM.
In the case of `Cc1nc2cccc(CCCCCCCCN3CC4CC(C3)O4)c2c(=O)n1C1CCC(=O)NC1=O` (stereo not drawn) [GT-02800, 3-(5-(8-(6-oxa-3-azabicyclo[3.1.1]heptan-3-yl)octyl)-2-methyl-4-oxoquinazolin-3(4H)-yl)piperidine-2,6-dione] it was 3400 nM.
For `Cc1nc2cccc(NCCCNC3C4CC5CC(C4)CC3C5)c2c(=O)n1C1CCC(=O)NC1=O` (stereo not drawn) [GT-02326, 3-(5-((3-(((1r,3r,5r,7r)-adamantan-2-yl)amino)propyl)amino)-2-methyl-4-oxoquinazolin-3(4H)-yl)piperidine-2,6-dione], the IC50 is 700 nM.
In the case of `Cc1nc2cccc(CN3CCN(CCC45CC6CC(CC(C6)C4)C5)CC3)c2c(=O)n1C1CCC(=O)NC1=O` (stereo not drawn) [GT-03261, 3-(5-((4-(2-((3r,5r,7r)-adamantan-1-yl)ethyl)piperazin-1-yl)methyl)-2-methyl-4-oxoquinazolin-3(4H)-yl)piperidine-2,6-dione] it was 1000 nM; in that of `Cc1nc2cccc(NCCCCCCCN3CCC(N4CCOCC4)CC3)c2c(=O)n1C1CCC(=O)NC1=O` (stereo not drawn) [GT-02622, 3-(2-methyl-5-((7-(4-morpholinopiperidin-1-yl)heptyl)amino)-4-oxoquinazolin-3(4H)-yl)piperidine-2,6-dione], 2480 nM.
In the case of `Cc1nc2cccc(CN3CCN(C(=O)C45CC6CC(CC(C6)C4)C5)CC3)c2c(=O)n1C1CCC(=O)NC1=O` (stereo not drawn) [GT-03317, 3-(5-((4-((1s,3s)-adamantane-1-carbonyl)piperazin-1-yl)methyl)-2-methyl-4-oxoquinazolin-3(4H)-yl)piperidine-2,6-dione] it was 3580 nM.
Next, `Cc1nc2cccc(NCCCCCCCN3CCCN(C)CC3)c2c(=O)n1C1CCC(=O)NC1=O` (stereo not drawn) [GT-02502, 3-(2-methyl-5-((7-(4-methyl-1,4-diazepan-1-yl)heptyl)amino)-4-oxoquinazolin-3(4H)-yl)piperidine-2,6-dione]: 1800 nM.
